Like-named read-outs stand apart in the source and are kept apart here.

The test deals with hNeil1 (Homo sapiens, UniProt Q96FI4). The experiment in a line: hNeil1 DNA glycosylase/AP lyase activity assay on DHU:G 24-mer duplex. It is filed as biochemical. On the set-up: Overproduction was performed as described above for full length hNeil1; 6His (C); made in house; host or cells: E. coli Rosetta2 (DE3). The conditions noted are these: for effect on hNeil1 catalytic activity: 0.2 mM compound. How it is done:
Figure 4 Comparative analysis of the effect of 2TX and TXn on Fpg/Nei DNA glycosylases. Enzyme activities were measured as described in the Figure 1 legend using […] of a 5′-[^32P]-24-mer DNA duplex containing either an 8-oxoG opposite C for LlFpg or a […] (DHU) opposite G for hNeil1 and mvNei1. The DNA probe was incubated with the indicated protein concentration and 0.2 mM TXn compounds in the presence or absence of 1 mM dithiothreitol (DTT) and TCEP (a representative experiment is illustrated by the upper histograms). The DNA probe for EMSA was 0.1 nM of 5′-[^32P]-[…] DNA duplex containing THF with LlFpg and mvNei1 (bottom panels: gel autoradiography) with the indicated conditions and as described in ‘Materials and Methods’.
Fpg, hNeil1 and mvNei1 are bifunctional DNA glycosylases associated with concerted DNA glycosylase activity (cleavage of the N-glycosidic bond between the base lesion and the C1′ of the deoxyribose) and AP lyase activity that comprises the successive cleavage of the phosphodiester bonds at the 3′ and 5′ of the resulting abasic (AP) site, respectively (β, δ-elimination). Thus, AP sites that result from the excision of the damaged base are quantitatively converted into one nucleoside gap by these enzymes. The DNA glycosylase/AP lyase activity of each enzyme was measured by incubating 20 nM of 24-mer DNA duplexes ([OG:C] and [DHU:G] for Fpg and hNeil1/mvNei1, respectively) 5′-labeling on the damaged strand (see above) with 2 nM of Fpg, or mvNei1 for 15 min or, with 20 nM of hNeil1 for 30 min at 37 °C in 10 mM Tris-HCl, pH 7.6, 150 mM NaCl, 1 mM EDTA, 0.1 mg/mL BSA and 8% DMSO. The reaction was stopped by the addition of 1 volume of formamide loading buffer (96% formamide, 20 mM Tris/HCl pH 8.0 and 2 mM Na2EDTA), heated at 80 °C for 2 min and then analyzed by 20% Urea-PAGE, as previously described. […] Under these conditions, only 50% of the substrate is converted to the cleavage product (limiting enzyme concentration conditions). For an initial evaluation of the inhibitory effect, 40 µM of 2TX/TXn was used. The thio-compound was added to the reaction mixture before the final addition of the enzyme (competition condition). For the best identified inhibitors, a dose-response curve was generated and IC50^A determined (Figure 1 and Table 1).

Setting [1] is: catalytic activity at 37 °C, compound stock in DMSO, DHU:G 24-mer, read-out: IC50app^A (Fpg/Nei enzyme catalysis) hNEIL1.

Chain of hNeil1 (Q96FI4 whole entry): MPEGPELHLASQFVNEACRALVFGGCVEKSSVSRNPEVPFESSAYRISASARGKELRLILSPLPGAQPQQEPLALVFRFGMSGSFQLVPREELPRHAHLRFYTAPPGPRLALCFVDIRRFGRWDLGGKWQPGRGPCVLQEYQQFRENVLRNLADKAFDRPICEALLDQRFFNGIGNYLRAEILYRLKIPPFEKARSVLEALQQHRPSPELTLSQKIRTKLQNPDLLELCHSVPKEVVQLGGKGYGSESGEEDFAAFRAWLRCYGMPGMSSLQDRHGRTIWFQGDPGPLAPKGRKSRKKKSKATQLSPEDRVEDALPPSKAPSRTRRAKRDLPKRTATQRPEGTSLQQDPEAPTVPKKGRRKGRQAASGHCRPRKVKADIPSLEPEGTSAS

Consider `O=c1[nH]c2[nH]c(=S)[nH]c(=O)c2[nH]1` [TX14, 2-thio-6,8-dioxopurine], for which, under setting [1], the IC50 was above 500 µM. `FC(F)(F)c1nc(S)c2nc[nH]c2n1` [TX13, 2-trifluoromethyl-6-thiopurine] had an IC50 above 250 µM.

`Nc1ncnc2[nH]c(S)nc12` [TX27]: under setting [1], the IC50 is 160 ± 16 µM. For `O=c1[nH]c(=S)[nH]c2[nH]c(=S)[nH]c12` [TX19], the “effect on hNeil1 catalytic activity” value (Figure 4) is “apparent inhibitory effects”. Further, where the note is “1 mM TCEP (DTT to a lesser extent), Figure 4”, the “inhibition of hNeil1 DNA binding and catalytic activities in the presence of TCEP” value is listed as “suppressed”. In addition, under setting [1], the IC50 worked out at 19 ± 1 µM. As for `O=c1[nH]c(=S)[nH]c2nc[nH]c12` [Compound 2TX, 2-thioxanthine, reference compound], the “effect on hNeil1 catalytic activity” value (Figure 4) is recorded as “did not significantly affect”. Under setting [1], the IC50 is above 500 µM.

(Values after PMC7139703, “Thiopurine Derivative-Induced Fpg/Nei DNA Glycosylase Inhibition: Structural, Dynamic and Functional Insights” (International Journal of Molecular Sciences, 2020).)
